Assay results from PMC7845692 (Frontiers in Pharmacology, 2020).
Structures can show the parent of a compound that is named as a salt. Where two headings read alike, the source gives them in different places.

Legend:
[1] = in vitro; details: cat
Protocol: (§2) The serotype II FIPV Taiwan isolate NTU156 strain, a kind gift from National Taiwan University, was propagated and titrated in Fcwf-4 cells ([Lin et al., 2009]). The EC50 for anti-FIPV activity and CC50 for cell cytotoxicity were determined as previously described ([Yang et al., 2020b]).

[2] = in vitro; details: human
[3] = system: Human coronavirus OC43; experiment: HCoV-OC43 immunofluorescent assay (IFA) against N protein in HCT-8 cells; format: cell-based; details: for EC50: read-out: Human coronavirus OC43 EC50 (IFA); for Human coronavirus OC43 Selectivity index: CC50/EC50, HCT-8 cells
[4] = system: Feline infectious peritonitis virus; experiment: anti-FIPV activity, cytopathic effect by visualization in Fcwf-4 cells; details: for EC50: Alphacoronavirus 1, read-out: Feline infectious peritonitis virus EC50 CPE/visualization; for Feline infectious peritonitis virus Selectivity index: CC50/EC50, Fcwf-4 cells
Protocol: as §2

[5] = system: HCoV-229E; experiment: HCoV-229E viral yield, end point dilution assay / TCID50; details: MRC-5, MOI 0.05
[6] = system: Human coronavirus 229E; experiment: HCoV-229E cytopathic effect, crystal violet absorbance in MRC-5 cells; details: CC50/EC50, MRC-5 cells
[7] = system: SARS-CoV-2; experiment: SARS-CoV-2 cytopathic effect by visualization in Vero E6 cells; format: cell-based
Protocol: (§1) CPE was performed as described ([Wu et al., 2004]). For IFA, Vero E6 cells (BCRC number: 60476; derived from ATCC CRL-1586) were treated with each compound at the indicated concentration for 1 h at 37°C. The cells were adsorbed with SARS-CoV-2 (TCDC#4) (sequence available on the GISAID website) at an MOI = 0.01 for 1 h at 37°C. After virus adsorption, the cells were washed with PBS and fresh medium containing each compound at the indicated concentration was added. After 2 days, cells were fixed with 4% paraformaldehyde and permeabilized with 0.5% Triton X-100. The cells were stained with anti-SARS-CoV-2 N protein antibody, provided by Dr. An-Suei Yang of the Genomics Research Center, Academia Sinica, and goat anti-human IgG-Alexa Fluor 488 (A11013, Invitrogen) (in green). The nuclei were counter stained with DAPI (in blue) (D1306, Invitrogen). The N protein expression was measured using a high-content image analysis system (Molecular Devices). The cell viability was determined by Cell Counting Kit-8 (CCK-8) (Sigma-Aldrich, cat #96992). EC50 and CC50 values were calculated by Prism software.

[8] = system: HCoV-229E; experiment: HCoV-229E viral RNA (ORF1, ORF N) by semi-RT-qPCR in MRC-5 cells; format: cell-based, Human coronavirus 229E; details: MRC-5, MOI 1, 30 h.p.i., 10–300 nM, dose dependent
Protocol: These experiments were performed as described ([Yang et al., 2007b]). Mock or HCoV-229E infected (MOI of 1) lysates were processed and prepared at 30 h.p.i. without or with compound treatment. The total RNA was extracted with TRIzol reagent (Invitrogen). The relative viral RNA expression levels were determined by semi-RT-qPCR, analyzed with the ImageJ Analyzer program (http://imagej.nih.gov/ij/index.html), and normalized with the housekeeping gene GAPDH. The primers used to amplify the PCR products were 5′-GGCGAGGTGGAATTTGTTTA-3′ and 5′-ACCTTTAAGCCACCATGTGC-3′ for ORF1; 5′-TCTGCCAAGAGTCTTGCTCG-3′ and 5′-AGCATAGCAGCTGTTGACGG-3′ for ORF N. The amplification of target cDNA was conducted under the following conditions: 25 cycles of 95°C for 30 s, 55°C for 20 s, and 72°C for 30 s for ORF N; 29 cycles of 95°C for 30 s, 55°C for 20 s, and 72°C for 30 s for ORF1, and 35 cycles of 95°C for 30 s, 55°C for 20 s, and 72°C for 30 s for GAPDH. The final PCR products were subjected to electrophoresis on 2% agarose gel containing ethidium bromide along with DNA markers.

[9] = system: SARS-CoV-2; experiment: SARS-CoV-2 IFA against N protein in Vero E6 cells; format: cell-based
Protocol: as §1

[10] = Vero E6 cell viability (CCK-8); format: cell-based; details: African green monkey, Vero E6 cells; read-out: SARS-CoV-2 CC50 CCK-8
Protocol: as §1

[11] = HCT-8 cell viability (MTS); details: human, HCT-8 cells
[12] = system: HCoV-OC43; experiment: HCoV-OC43 viral yield, end point dilution assay / TCID50; format: cell-based, Human coronavirus OC43
[13] = Vero E6 cytotoxicity by visualization; format: cell-based; details: African green monkey, Vero E6 cells; read-out: SARS-CoV-2 CC50 Visualization
Protocol: as §1

[14] = in vitro; details: human, MRC-5 cells
[15] = cell cytotoxicity by visualization (FIPV host cells); details: cat
Protocol: as §2

[16] = system: SARS-CoV-2; experiment: microbe, parasite or virus in culture; format: cell-based
[17] = Betacoronavirus 1, OC43, HCT-8, 72 h

`C[C@]12CCC(=NOCCN)C[C@@H]1C(=O)C[C@@H]1[C@@H]2CC[C@]2(C)C(=O)CC[C@@H]12` [Istaroxime, istaroxime hydrochloride] showed a CC50 [1] of 7120 ± 750 nM, a CC50 at 72 h [2] of 32000 nM and an EC50 [3, 17] of 5420 ± 268 nM. For the same molecule, the “Human coronavirus OC43 Selectivity index” value [3] was 5.9, the EC50 [4] was 2160 nM and the “Feline infectious peritonitis virus Selectivity index” value [4] was 3.3.

For `C[C@H]1O[C@@H](O[C@H]2[C@@H](O)C[C@H](O[C@H]3[C@@H](O)C[C@H](O[C@H]4CC[C@@]5(C)[C@H](CC[C@@H]6[C@@H]5CC[C@]5(C)[C@@H](C7=CC(=O)OC7)CC[C@]65O)C4)O[C@@H]3C)O[C@@H]2C)C[C@H](O)[C@@H]1O` [Digitoxin, digitoxin], the CC50 [1] was 825 ± 195 nM, the CC50 [2] was 909 ± 123 nM and the EC50 ([3]; Betacoronavirus 1, OC43, HCT-8 cells, MOI 0.05, 72 h.p.i., means ± SD) was 88 ± 16 nM. The “Human coronavirus OC43 Selectivity index” value [3] was 10.3, the EC50 [4] was 97 ± 6 nM and the “Feline infectious peritonitis virus Selectivity index” value [4] was 8.5.

With `CCN1Cc2c(c3ccc(OC)cc3c3cc(OC)c(OC)cc23)C(O)C1` (stereo not shown) [dbq33b] the “complete reduction of HCoV-229E viral yield” value ([5]; at 100, 300 and 600 nM respectively (dbq33b, dbq33b4p7, PI09)) was 6–7 log of magnitudes, the “concentration giving complete reduction of HCoV-229E viral yield” value ([5]; reduction 6–7 log) was 100 nM and the “Human coronavirus 229E Selectivity index” value [6] was 264. For the same molecule, the “SARS-CoV-2 Selectivity index (CPE/visualization)” value ([7]; CC50/EC50, Vero E6 cells) was 500, the EC50 ([7]; Severe acute respiratory syndrome coronavirus 2, Vero C1008, Vero E6 cells, means from duplicate, read-out: SARS-CoV-2 EC50 CPE/visualization) was 2.5 nM and the “effect on HCoV-229E viral genome replication and subgenomic viral RNA syntheses (RT-PCR ORF1, ORF N)” value [8] was “inhibited HCoV-229E viral genome replication and subgenomic viral RNA syntheses”. For the same molecule, the “SARS-CoV-2 Selectivity index (IFA/CCK-8)” value ([9]; CC50/EC50, Vero E6 cells) was 367, the EC50 ([9]; Severe acute respiratory syndrome coronavirus 2, Vero C1008, 48 h, read-out: SARS-CoV-2 EC50 IFA, Vero E6 cells, MOI 0.01, 2 d.p.i., N protein) was 14 nM and the EC50 ([9]; Vero E6 cells, MOI 0.01, 2 d.p.i., N protein, read-out: SARS-CoV-2 EC50 IFA) was 13.9 nM. For the same molecule, the CC50 [10] was 5100 nM, the CC50 at 72 h [11] was > 10000 nM and the “complete reduction of HCoV-OC43 viral yield” value ([12]; HCT-8, MOI 0.05, supernatant 72 h.p.i., at 30, 100 and 300 nM respectively (dbq33b, dbq33b4p7, PI09)) was 7–8 log of magnitudes. For the same molecule, the “concentration accomplishing complete reduction of HCoV-OC43 viral yield” value ([12]; HCT-8, MOI 0.05, reduction ∼7–8 log) was 30 nM, the CC50 [13] was 1250 nM and the EC50 [3, 17] was 16 ± 5 nM. The “Human coronavirus OC43 Selectivity index” value [3] was >610, the CC50 [14] was 1710 nM and the CC50 [15] was 3120 nM. For the same molecule, the EC50 [4] was 8 ± 2 nM, the “Feline infectious peritonitis virus Selectivity index” value [4] was 390.6 and the EC50 ([16]; Severe acute respiratory syndrome coronavirus 2, Vero C1008, read-out: SARS-CoV-2 plaque assay EC50, Vero E6 cells) was 14 nM. It also gave an EC50 ([16]; Severe acute respiratory syndrome coronavirus 2, Vero C1008, read-out: SARS-CoV-2 plaque assay EC50, Vero E6 cells, 5–7 days, Figure 5B-b) of 13.8 ± 0.3 nM.
